By IC50 is commonly meant the concentration at which inhibition is half-maximal.

The structures appear in SMILES notation.

This experiment has as its target BRD4 (Homo sapiens (Human), UniProt O60885). The settings on record: read-out: BRD4 IC50 (μM gmean).
Turning to `COC(=O)N1c2ccc3c(nc(C(c4ccc(OC)c(F)c4)C(C)C)n3C3CCC(C(=O)O)CC3)c2CC[C@@H]1C` (stereo partly shown) [Example 466], the IC50 fell in the range of 1 to 1000 µM.

Turning to `COC(=O)N1c2ccc3c(nc(CC(C(=O)O)c4ccc5ccccc5c4)n3C3CCCOC3)c2CC[C@@H]1C` (stereo partly shown) [Example 468], the IC50 fell in the range of 1 to 1000 µM.

On to `COC(=O)N1c2ccc3c(nc(Cc4ccc(C)c(F)c4)n3[C@@H]3CCC[C@@H](C(=O)O)C3)c2CC[C@@H]1C` [Example 471], for which the IC50 was in the range of 1 to 1000 µM.

`COC(=O)N1c2ccc3c(nc(CC(C(=O)O)c4ccccc4)n3C3CCCC(OC)C3)c2CC[C@@H]1C` (stereo partly shown) [Example 475]: the IC50 is 1 to 1000 µM.

For `COC(=O)N1c2ccc3c(nc(Cc4ccc(OC)c(F)c4)n3[C@@H]3CCC[C@@H](C(=O)O)C3)c2CC[C@@H]1C` [Example 481], the IC50 lay in the range of 1 to 1000 µM.

Turning to `COC(=O)N1c2ccc3c(nc(C(C)Cn4ccc(C)n4)n3C3CCCC(C(=O)O)C3)c2CC[C@@H]1C` (stereo partly shown) [Example 485], the IC50 was in the range of 1 to 1000 µM.

For `COC(=O)N1c2ccc3c(nc(CC(C(=O)O)c4cccc(F)c4)n3C3CCCOC3)c2CC[C@@H]1C` (stereo partly shown) [Example 490], the IC50 is 1 to 1000 µM.

As for `COC(=O)N1c2ccc3c(nc(C(C)Cn4cc(C(F)F)cn4)n3C3CCCC(C(=O)O)C3)c2CC[C@@H]1C` (stereo partly shown) [Example 492], the IC50 lay within 1 to 1000 µM.

For `COC(=O)N1c2ccc3c(nc(CC(C(=O)O)c4ccc(Cl)cc4)n3C3CCCOC3)c2CC[C@@H]1C` (stereo partly shown) [Example 495], the 50% inhibitory concentration (IC50) was 1 to 1000 µM.

With `COC(=O)N1c2ccc3c(nc(CC(C(=O)O)c4ccc(C)cc4)n3C3CCCOC3)c2CC[C@@H]1C` (stereo partly shown) [Example 497], the IC50 was 1 to 1000 µM.

As to `COC(=O)N1c2ccc3c(nc(Cc4ccc(F)c(F)c4)n3[C@@H]3CCC[C@@H](C(=O)O)C3)c2CC[C@@H]1C` [Example 502], the IC50 lay in the range of 1 to 1000 µM.

For the compound `COC(=O)N1c2ccc3c(nc(C(C)Cn4cc(C(F)F)cn4)n3C3CCC(C(=O)O)CC3)c2CC[C@@H]1C` (stereo partly shown) [Example 504], the IC50 was in the range of 1 to 1000 µM.

Consider `COC(=O)N1c2ccc3c(nc(C(CO)c4ccccc4)n3C3CCCC(C(=O)O)C3)c2CC[C@@H]1C` (stereo partly shown) [Example 505], for which the half-maximal inhibitory concentration (IC50) was in the range of 1 to 1000 µM.

With `COC(=O)N1c2ccc3c(nc(Cc4ccc(OC)c(Cl)c4)n3[C@H]3CC[C@H](C(=O)O)CC3)c2CC[C@@H]1C` [Example 508], the IC50 is 1 to 1000 µM.

Regarding `COC(=O)N1c2ccc3c(nc(CCc4ccc(F)c(F)c4)n3[C@@H]3CCC[C@@H](C(=O)O)C3)c2CC[C@@H]1C` [Example 509], the 50% inhibitory concentration (IC50) lay within 1 to 1000 µM.

As to `COC(=O)N1c2ccc3c(nc(CC(C(=O)O)c4ccc(F)cc4)n3C3CCCOC3)c2CC[C@@H]1C` (stereo partly shown) [Example 510], the half-maximal inhibitory concentration (IC50) is 1 to 1000 µM.

For the compound `COC(=O)N1c2ccc3c(nc(Cc4cc(Cl)cc(OC)c4)n3[C@@H]3CCC[C@@H](C(=O)O)C3)c2CC[C@@H]1C` [Example 512], the IC50 is 1 to 1000 µM.

On to `COC(=O)N1c2ccc3c(nc(CCC4CCCC4)n3C3CCCC(C(=O)O)C3)c2CC[C@@H]1C` (stereo partly shown) [Example 514], for which the 50% inhibitory concentration (IC50) fell in the range of 1 to 1000 µM.

Turning to `COC(=O)N1c2ccc3c(nc(CC(C(=O)O)c4ccccc4)n3-c3cccc(OC)c3)c2CC[C@@H]1C` (stereo partly shown) [Example 516], the IC50 lay in the range of 1 to 1000 µM.

`COC(=O)N1c2ccc3c(nc(CCc4ccccc4C(=O)O)n3C3CCCCC3)c2CC[C@@H]1C` [Example 521]: the IC50 lay within 1 to 1000 µM.

In the case of `C/C=C(\Oc1ccccc1)c1nc2c3c(ccc2n1[C@@H]1CCC[C@@H](C(=O)O)C1)N(C(=O)OC)[C@@H](C)CC3` [Example 522], the IC50 lay in the range of 1 to 1000 µM.

As for `COC(=O)N1c2ccc3c(nc(CC(C(=O)O)c4ccc(C(F)F)cc4)n3C3CCCOC3)c2CC[C@@H]1C` (stereo partly shown) [Example 524], the 50% inhibitory concentration (IC50) fell in the range of 1 to 1000 µM.

For the compound `COC(=O)N1c2ccc3c(nc(C(C)Cn4ccc(C)n4)n3C3CCC(C(=O)O)CC3)c2CC[C@@H]1C` (stereo partly shown) [Example 526], the IC50 is 1 to 1000 µM.

Regarding `COC(=O)N1c2ccc3c(nc(Cc4ccc(OC(F)F)cc4)n3[C@@H]3CCC[C@@H](C(=O)O)C3)c2CC[C@@H]1C` [Example 533], the IC50 is 1 to 1000 µM.

On to `CCC(O)(c1ccccc1)c1nc2c3c(ccc2n1[C@@H]1CCC[C@@H](C(=O)O)C1)N(C(=O)OC)[C@@H](C)CC3` (stereo partly shown) [Example 534], for which the IC50 was in the range of 1 to 1000 µM.

With `COC(=O)N1c2ccc3c(nc(CC(C(=O)O)c4ccccc4)n3-c3ccc(OC)cc3)c2CC[C@@H]1C` (stereo partly shown) [Example 536], the IC50 was 1 to 1000 µM.

`COC(=O)N1c2ccc3c(nc(CC(C(=O)O)c4ccc(C)cc4)n3C3CCCOC3)c2CC[C@@H]1C` (stereo partly shown) [Example 539]: the half-inhibitory concentration (IC50) was 1 to 1000 µM.

As for `COC(=O)N1c2ccc3c(nc(Cc4cc(F)cc(OC)c4)n3[C@@H]3CCC[C@@H](C(=O)O)C3)c2CC[C@@H]1C` [Example 541], the IC50 lay within 1 to 1000 µM.

For `COC(=O)N1c2ccc3c(nc(C(C)(O)c4ccccc4)n3C3CCCC(C(=O)O)C3)c2CC[C@@H]1C` (stereo partly shown) [Example 542], the IC50 was in the range of 1 to 1000 µM.

In the case of `COC(=O)N1c2ccc3c(nc(Cc4ccc(OC(F)F)cc4)n3[C@H]3CC[C@H](C(=O)O)CC3)c2CC[C@@H]1C` [Example 544], the half-inhibitory concentration (IC50) lay within 1 to 1000 µM.

For the compound `COC(=O)N1c2ccc3c(nc(Cc4ccc(C)cc4)n3[C@@H]3CCC[C@@H](C(=O)O)C3)c2CC[C@@H]1C` [Example 549], the IC50 is 1 to 1000 µM.

In the case of `COC(=O)N1c2ccc3c(nc(CCc4ccc(C)c(F)c4)n3[C@@H]3CCC[C@@H](C(=O)O)C3)c2CC[C@@H]1C` [Example 550], the half-maximal inhibitory concentration (IC50) fell in the range of 1 to 1000 µM.

On to `COC(=O)N1c2ccc3c(nc(C(C)Cn4cc(Cl)cn4)n3C3CCC(C(=O)O)CC3)c2CC[C@@H]1C` (stereo partly shown) [Example 551], for which the IC50 lay within 1 to 1000 µM.

Regarding `COC(=O)N1c2ccc3c(nc(Cc4ccc(OC)c(F)c4F)n3[C@H]3CC[C@H](C(=O)O)CC3)c2CC[C@@H]1C` [Example 553], the IC50 fell in the range of 1 to 1000 µM.

Turning to `COC(=O)N1c2ccc3c(nc(Cc4ccccc4C(=O)O)n3C3CCCCC3)c2CC[C@@H]1C` [Example 555], the concentration for half-maximal inhibition (IC50) was in the range of 1 to 1000 µM.

As for `COC(=O)N1c2ccc3c(nc(C(C)(C)c4ccc(OC)c(F)c4)n3[C@H]3CC[C@H](C(=O)O)CC3)c2CC[C@@H]1C` [Example 560], the IC50 was 1 to 1000 µM.

For the compound `COC(=O)N1c2ccc3c(nc(Cc4cc(F)ccc4OC)n3[C@H]3CC[C@H](C(=O)O)CC3)c2CC[C@@H]1C` [Example 561], the IC50 was 1 to 1000 µM.

`COC(=O)N1c2ccc3c(nc(Cc4ccc(OC5CC5)nc4)n3[C@@H]3CCC[C@@H](C(=O)O)C3)c2CC[C@@H]1C` [Example 562]: the IC50 lay within 1 to 1000 µM.

Regarding `COC(=O)N1c2ccc3c(nc(CC(C(=O)O)c4ccc(C)cc4)n3C3COCC(F)(F)C3)c2CC[C@@H]1C` (stereo partly shown) [Example 563], the IC50 was 1 to 1000 µM.

For the compound `COC(=O)N1c2ccc3c(nc(Cc4ccc(OC)cc4)n3[C@@H]3CCC[C@@H](C(=O)O)C3)c2CC[C@@H]1C` [Example 568], the half-inhibitory concentration (IC50) was in the range of 1 to 1000 µM.

With `COC(=O)N1c2ccc3c(nc(C4(Oc5ccccc5)CC4)n3[C@H]3CC[C@H](C(=O)O)CC3)c2CC[C@@H]1C` [Example 574], the 50% inhibitory concentration (IC50) was 1 to 1000 µM.

On to `COC(=O)N1c2ccc3c(nc(CC4CCCCC4)n3[C@@H]3CCC[C@@H](C(=O)O)C3)c2CC[C@@H]1C` [Example 575], for which the IC50 lay in the range of 1 to 1000 µM.

As to `COC(=O)N1c2ccc3c(nc(Cc4ccc5[nH]ccc5c4)n3[C@@H]3CCC[C@@H](C(=O)O)C3)c2CC[C@@H]1C` [Example 577], the IC50 was in the range of 1 to 1000 µM.

Consider `COC(=O)N1c2ccc3c(nc(CC(C(=O)O)c4cccc5ccccc45)n3C3CCCOC3)c2CC[C@@H]1C` (stereo partly shown) [Example 580], for which the 50% inhibitory concentration (IC50) was 1 to 1000 µM.

Consider `COC(=O)N1c2ccc3c(nc(Cc4ccc(N(C)C)c(F)c4)n3[C@H]3CC[C@H](C(=O)O)CC3)c2CC[C@@H]1C` [Example 581], for which the half-inhibitory concentration (IC50) lay in the range of 1 to 1000 µM.

Regarding `COC(=O)N1c2ccc3c(nc(C(CO)c4ccccc4)n3C3CCC(C(=O)O)CC3)c2CC[C@@H]1C` (stereo partly shown) [Example 582], the IC50 lay within 1 to 1000 µM.

As for `COC(=O)N1c2ccc3c(nc(C(C)Cn4cccn4)n3C3CCCC(C(=O)O)C3)c2CC[C@@H]1C` (stereo partly shown) [Example 583], the half-maximal inhibitory concentration (IC50) lay within 1 to 1000 µM.

Consider `COC(=O)N1c2ccc3c(nc(CC(C(=O)O)c4ccc(C(F)F)cc4)n3C3CCCOC3)c2CC[C@@H]1C` (stereo partly shown) [Example 584], for which the IC50 lay within 1 to 1000 µM.

Take `COC(=O)N1c2ccc3c(nc(C4(N5CCCCC5=O)CC4)n3[C@@H]3CCC[C@@H](C(=O)O)C3)c2CC[C@@H]1C` [Example 588]: the half-maximal inhibitory concentration (IC50) was 1 to 1000 µM.

Consider `COC(=O)N1c2ccc3c(nc(C(O)c4cc5ccoc5cn4)n3C3CCCC(C(=O)O)C3)c2CC[C@@H]1C` (stereo partly shown) [Example 589], for which the IC50 lay in the range of 1 to 1000 µM.

As to `COC(=O)N1c2ccc3c(nc(N(C)c4ccc(C)cc4)n3[C@@H]3CCC[C@@H](C(=O)O)C3)c2CC[C@@H]1C` [Example 591], the IC50 fell in the range of 1 to 1000 µM.

With `COC(=O)N1c2ccc3c(nc(Cc4cccc(OC(F)F)n4)n3[C@@H]3CCC[C@@H](C(=O)O)C3)c2CC[C@@H]1C` [Example 593], the 50% inhibitory concentration (IC50) is 1 to 1000 µM.

In the case of `COC(=O)N1c2ccc3c(nc(CC(C(=O)O)c4ccccc4)n3C3COCC(F)(F)C3)c2CC[C@@H]1C` (stereo partly shown) [Example 594], the IC50 was 1 to 1000 µM.

Regarding `COC(=O)N1c2ccc3c(nc(C(O)CC4CCC(F)(F)CC4)n3C3CCCC(C(=O)O)C3)c2CC[C@@H]1C` (stereo partly shown) [Example 596], the half-maximal inhibitory concentration (IC50) lay within 1 to 1000 µM.

On to `COC(=O)N1c2ccc3c(nc(Cc4cccc(F)c4)n3[C@@H]3CCC[C@@H](C(=O)O)C3)c2CC[C@@H]1C` [Example 601], for which the IC50 lay within 1 to 1000 µM.

For `COC(=O)N1c2ccc3c(nc(CC(C(=O)O)c4ccccc4)n3C3COCC(F)(F)C3)c2CC[C@@H]1C` (stereo partly shown) [Example 602], the IC50 was 1 to 1000 µM.

Turning to `COC(=O)N1c2ccc3c(nc(C(C)(O)c4ccccc4)n3C3CCCC(C(=O)O)C3)c2CC[C@@H]1C` (stereo partly shown) [Example 607], the 50% inhibitory concentration (IC50) was in the range of 1 to 1000 µM.

Regarding `COC(=O)N1c2ccc3c(nc(C(O)c4ccc(Cl)cn4)n3C3CCCC(C(=O)O)C3)c2CC[C@@H]1C` (stereo partly shown) [Example 610], the IC50 lay within 1 to 1000 µM.

Take `COC(=O)N1c2ccc3c(nc(Cc4cncc(C(C)C)n4)n3[C@@H]3CCC[C@@H](C(=O)O)C3)c2CC[C@@H]1C` [Example 611]: the half-inhibitory concentration (IC50) lay in the range of 1 to 1000 µM.

Turning to `COC(=O)N1c2ccc3c(nc(N(C)c4cccc(F)c4)n3[C@H]3CC[C@H](C(=O)O)CC3)c2CC[C@@H]1C` [Example 613], the IC50 lay in the range of 1 to 1000 µM.

As for `COC(=O)N1c2ccc3c(nc(CC4CCCCC4O)n3C3CCCC(C(=O)O)C3)c2CC[C@@H]1C` (stereo partly shown) [Example 614], the IC50 was in the range of 1 to 1000 µM.

(Values after US11292791B2 (priority 2017, dated 2022).)
